These results are taken from paper PMC9855422, “Purification and Properties of Polyphenol Oxidase of Dried Volvariella bombycina” (Biology, 2022).

Assay [1] deals with T1, dried V. bombycina PPO (polyphenol oxidase).
T1 construct: single band about 25 kDa on SDS-PAGE
Description: spectrophotometric oxidation at […] nm, Lineweaver-Burk. The assay is classed as biochemical, Volvariella bombycina.

The test system is the same in assay [2]. Described as above. The assay is classed as biochemical, Volvariella bombycina. Particulars: optimum pH 8.0, 15 °C.

The term Km denotes the concentration of substrate that gives half-maximal velocity.

Molecules are shown by their SMILES.

With `Oc1ccccc1O` [catechol], the Michaelis constant (Km) in assay [1] (optimum pH 6.5, 15 °C, 0.1 M phosphate buffer) came to 1670 µM.

In the case of `Oc1cccc(O)c1O` [pyrogallol], the Km in assay [2] was 2670 µM.

For `Cc1ccc(O)c(O)c1` [4-methyl catechol], the Michaelis constant (Km) in assay [1] (optimum pH 9.0, 20 °C) worked out at 3170 µM.
